Some results are limits rather than exact numbers.

This assay has as its target T1, full-length beta-catenin (Axin site) (Homo sapiens, UniProt P35222).
T1 construct: 15 nM full-length beta-catenin, 20 nM FITC labeled peptide in buffer
T1 sequence (P35222 1-781): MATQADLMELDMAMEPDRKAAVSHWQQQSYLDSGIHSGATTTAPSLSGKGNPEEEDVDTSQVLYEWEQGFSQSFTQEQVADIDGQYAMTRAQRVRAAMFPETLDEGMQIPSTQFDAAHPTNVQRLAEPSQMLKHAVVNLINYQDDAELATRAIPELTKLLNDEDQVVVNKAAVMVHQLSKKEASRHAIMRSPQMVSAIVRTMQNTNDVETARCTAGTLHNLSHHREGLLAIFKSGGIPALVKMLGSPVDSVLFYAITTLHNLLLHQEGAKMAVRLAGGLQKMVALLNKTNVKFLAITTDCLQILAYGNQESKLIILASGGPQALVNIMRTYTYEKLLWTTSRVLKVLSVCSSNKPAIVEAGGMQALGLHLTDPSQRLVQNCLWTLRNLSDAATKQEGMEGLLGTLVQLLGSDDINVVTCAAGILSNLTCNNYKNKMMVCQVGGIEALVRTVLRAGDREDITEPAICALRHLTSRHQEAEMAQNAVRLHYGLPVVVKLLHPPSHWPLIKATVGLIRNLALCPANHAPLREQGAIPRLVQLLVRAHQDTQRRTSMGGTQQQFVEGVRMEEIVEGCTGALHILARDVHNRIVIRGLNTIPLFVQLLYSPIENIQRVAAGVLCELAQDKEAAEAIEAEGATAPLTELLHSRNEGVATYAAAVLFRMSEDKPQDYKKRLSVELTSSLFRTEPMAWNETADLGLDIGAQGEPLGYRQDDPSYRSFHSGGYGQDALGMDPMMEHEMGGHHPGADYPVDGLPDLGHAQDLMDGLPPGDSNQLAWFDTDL
Description: Competition fluorescence polarization assay (Axin site probe). It counts as binding. The settings on record: competition fluorescence polarization, Table 2; read-out: in vitro FP EC50. The method, boiled down: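 Competition FP: 15 nM full-length β-catenin pre-incubated 5 min with 20 nM FITC-labelled stapled Axin-site peptide, then titrated peptide added (3-fold series from 5 μM) for 15 min in the dark. Buffer 50 mM Tris pH 8.0, 250 mM NaCl, 2% glycerol, 0.5 mM EDTA; duplicate reads.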
Consider `CC[C@H](C)[C@@H]1NC(=O)[C@H](Cc2ccccn2)NC(=O)[C@H](C)NC(=O)[C@H](CC(=O)O)NC(=O)[C@H](CC(C)C)NC(=O)[C@H]([C@@H](C)CC)NC(=O)[C@](C)(NC(=O)[C@H](C)NC(C)=O)CCCCCCC=CCOC(=O)N2CC[C@@](C(=O)N[C@@H](CC3CC3)C(=O)N[C@H](C(=O)N[C@@H](Cc3c[nH]c4ccccc34)C(N)=O)C(C)C)(C2)NC1=O` (single isomer, unassigned) [FP0574c Isomer 2, Ac-A-R8-I-L-D-A-2pyr-I-MB-cpa-V-W-NH2], for which the EC50 was above 5 µM.
With `CC[C@H](C)[C@@H]1NC(=O)[C@H](Cc2ccccn2)NC(=O)[C@H](C)NC(=O)[C@H](CC(=O)O)NC(=O)[C@H](CC(C)C)NC(=O)[C@H]([C@@H](C)CC)NC(=O)[C@](C)(NC(=O)[C@H](C)NC(C)=O)CCCCCCC=CCOC(=O)N2CC[C@@](C(=O)N[C@@H](Cc3ccc(OC)cc3)C(=O)N[C@H](C(=O)N[C@@H](Cc3c[nH]c4ccccc34)C(N)=O)C(C)C)(C2)NC1=O` (single isomer, unassigned) [FP0575c Isomer 1, Ac-A-R8-I-L-D-A-2pyr-I-MB-MeY-V-W-NH2], the concentration for a half-maximal effect (EC50) is above 5 µM.
The figure for `CC[C@H](C)[C@@H]1NC(=O)[C@H](Cc2ccccn2)NC(=O)[C@H](C)NC(=O)[C@H](CC(=O)O)NC(=O)[C@H](CC(C)C)NC(=O)[C@H]([C@@H](C)CC)NC(=O)[C@](C)(NC(=O)[C@H](C)NC(C)=O)CCCCCCC=CCOC(=O)N2CC[C@@](C(=O)N[C@@H](Cc3ccc(OC)cc3)C(=O)N[C@H](C(=O)N[C@@H](Cc3c[nH]c4ccccc34)C(N)=O)C(C)C)(C2)NC1=O` (single isomer, unassigned) [FP0575c Isomer 2, Ac-A-R8-I-L-D-A-2pyr-I-MB-MeY-V-W-NH2] is above 5 µM; for `CC[C@H](C)[C@@H]1NC(=O)[C@H](Cc2ccccn2)NC(=O)[C@H](C)NC(=O)[C@H](CC(=O)O)NC(=O)[C@H](CC(C)C)NC(=O)[C@H]([C@@H](C)CC)NC(=O)[C@](C)(NC(=O)[C@H](C)NC(C)=O)CCCCCCC=CCOC(=O)N2CC[C@@](C(=O)N[C@@H](Cc3ccc(F)cc3)C(=O)N[C@H](C(=O)N[C@@H](Cc3c[nH]c4ccccc34)C(N)=O)C(C)C)(C2)NC1=O` (single isomer, unassigned) [FP0576c Isomer 1, Ac-A-R8-I-L-D-A-2pyr-I-MB-4FF-V-W-NH2] it is above 5 µM; for `CC[C@H](C)[C@@H]1NC(=O)[C@H](Cc2ccccn2)NC(=O)[C@H](C)NC(=O)[C@H](CC(=O)O)NC(=O)[C@H](CC(C)C)NC(=O)[C@H]([C@@H](C)CC)NC(=O)[C@](C)(NC(=O)[C@H](C)NC(C)=O)CCCCCCC=CCOC(=O)N2CC[C@@](C(=O)N[C@@H](Cc3ccc(F)cc3)C(=O)N[C@H](C(=O)N[C@@H](Cc3c[nH]c4ccccc34)C(N)=O)C(C)C)(C2)NC1=O` (single isomer, unassigned) [FP0576c Isomer 2, Ac-A-R8-I-L-D-A-2pyr-I-MB-4FF-V-W-NH2] it is above 5 µM.
On to `CC[C@H](C)[C@@H]1NC(=O)[C@H](Cc2ccccn2)NC(=O)[C@H](C)NC(=O)[C@H](CC(=O)O)NC(=O)[C@H](CC(C)C)NC(=O)[C@H]([C@@H](C)CC)NC(=O)[C@](C)(NC(=O)[C@H](C)NC(C)=O)CCCCCCC=CCOC(=O)N2CC[C@@](C(=O)N[C@@H](Cc3cccc4ccccc34)C(=O)N[C@H](C(=O)N[C@@H](Cc3c[nH]c4ccccc34)C(N)=O)C(C)C)(C2)NC1=O` (single isomer, unassigned) [FP0577c Isomer 1, Ac-A-R8-I-L-D-A-2pyr-I-MB-1NapA-V-W-NH2], for which the EC50 was above 5 µM.
Then `CC[C@H](C)[C@@H]1NC(=O)[C@H](Cc2ccccn2)NC(=O)[C@H](C)NC(=O)[C@H](CC(=O)O)NC(=O)[C@H](CC(C)C)NC(=O)[C@H]([C@@H](C)CC)NC(=O)[C@](C)(NC(=O)[C@H](C)NC(C)=O)CCCCCCC=CCOC(=O)N2CC[C@@](C(=O)N[C@@H](Cc3ccc(C)cc3)C(=O)N[C@H](C(=O)N[C@@H](Cc3c[nH]c4ccccc34)C(N)=O)C(C)C)(C2)NC1=O` (single isomer, unassigned) [FP0578c Isomer 1, Ac-A-R8-I-L-D-A-2pyr-I-MB-4MeF-V-W-NH2], with above 5 µM; and `CC[C@H](C)[C@@H]1NC(=O)[C@H](Cc2ccccn2)NC(=O)[C@H](C)NC(=O)[C@H](CC(=O)O)NC(=O)[C@H](CC(C)C)NC(=O)[C@H]([C@@H](C)CC)NC(=O)[C@](C)(NC(=O)[C@H](C)NC(C)=O)CCCCCCC=CCOC(=O)N2CC[C@@](C(=O)N[C@@H](Cc3ccc(C)cc3)C(=O)N[C@H](C(=O)N[C@@H](Cc3c[nH]c4ccccc34)C(N)=O)C(C)C)(C2)NC1=O` (single isomer, unassigned) [FP0578c Isomer 2, Ac-A-R8-I-L-D-A-2pyr-I-MB-4MeF-V-W-NH2], with above 5 µM.
The figure for `CC[C@H](C)[C@@H]1NC(=O)C2(NC(=O)[C@H](CCC(N)=O)NC(=O)[C@@H]3CCCN3C(C)=O)CN(C2)C(=O)OCC=CCC[C@](C)(C(=O)N[C@@H](Cc2c[nH]cn2)C(=O)N[C@H](C(=O)N[C@@H](CCCNC(=N)N)C(=O)N[C@@H](CCCNC(=N)N)C(=O)N[C@H](C(=O)N[C@@H](Cc2c[nH]c3ccccc23)C(=O)N[C@@H](CCCNC(=N)N)C(N)=O)C(C)C)C(C)C)NC(=O)[C@H](CC(=O)O)NC(=O)[C@H](CC(C)C)NC1=O` (single isomer, unassigned) [FP0721c, Ac-P-Q-MA-I-L-D-R4-H-V-R-R-V-W-R-NH2] is 0.5 to 5 µM.
The figure for `CC[C@H](C)[C@@H]1NC(=O)C2(NC(=O)[C@H](CCC(N)=O)NC(=O)[C@@H]3CCCN3C(C)=O)CN(C2)C(=O)OCC=CCCC[C@](C)(C(=O)N[C@@H](Cc2c[nH]cn2)C(=O)N[C@H](C(=O)N[C@@H](CCCNC(=N)N)C(=O)N[C@@H](CCCNC(=N)N)C(=O)N[C@H](C(=O)N[C@@H](Cc2c[nH]c3ccccc23)C(=O)N[C@@H](CCCNC(=N)N)C(N)=O)C(C)C)C(C)C)NC(=O)[C@H](CC(=O)O)NC(=O)[C@H](CC(C)C)NC1=O` (single isomer, unassigned) [FP0723c, Ac-P-Q-MA-I-L-D-R5-H-V-R-R-V-W-R-NH2] is 0.5 to 5 µM.
Regarding `CC[C@H](C)[C@@H]1NC(=O)C2(NC(=O)[C@H](CCC(N)=O)NC(=O)[C@@H]3CCCN3C(C)=O)CN(C2)C(=O)OCC=CCCC[C@@](C)(C(=O)N[C@@H](Cc2c[nH]cn2)C(=O)N[C@H](C(=O)N[C@@H](CCCNC(=N)N)C(=O)N[C@@H](CCCNC(=N)N)C(=O)N[C@H](C(=O)N[C@@H](Cc2c[nH]c3ccccc23)C(=O)N[C@@H](CCCNC(=N)N)C(N)=O)C(C)C)C(C)C)NC(=O)[C@H](CC(=O)O)NC(=O)[C@H](CC(C)C)NC1=O` (single isomer, unassigned) [FP0724c, Ac-P-Q-MA-I-L-D-S5-H-V-R-R-V-W-R-NH2], the concentration giving a half-maximal response (EC50) fell in the range of 0.5 to 5 µM.
Regarding `CC[C@H](C)[C@@H]1NC(=O)C2(NC(=O)[C@H](CCC(N)=O)NC(=O)[C@@H]3CCCN3C(C)=O)CN(CC=CCCCC[C@](C)(C(=O)N[C@@H](Cc3c[nH]cn3)C(=O)N[C@H](C(=O)N[C@@H](CCCNC(=N)N)C(=O)N[C@@H](CCCNC(=N)N)C(=O)N[C@H](C(=O)N[C@@H](Cc3c[nH]c4ccccc34)C(=O)N[C@@H](CCCNC(=N)N)C(N)=O)C(C)C)C(C)C)NC(=O)[C@H](CC(=O)O)NC(=O)[C@H](CC(C)C)NC1=O)C2` (single isomer, unassigned) [FP0725a, Ac-P-Q-MA-I-L-D-R6-H-V-R-R-V-W-R-NH2], the EC50 was in the range of 0.5 to 5 µM.
The figure for `CC[C@H](C)[C@@H]1NC(=O)C2(NC(=O)[C@H](CCC(N)=O)NC(=O)[C@@H]3CCCN3C(C)=O)CN(C2)C(=O)OCC=CCCCCC[C@](C)(C(=O)N[C@@H](Cc2c[nH]cn2)C(=O)N[C@H](C(=O)N[C@@H](CCCNC(=N)N)C(=O)N[C@@H](CCCNC(=N)N)C(=O)N[C@H](C(=O)N[C@@H](Cc2c[nH]c3ccccc23)C(=O)N[C@@H](CCCNC(=N)N)C(N)=O)C(C)C)C(C)C)NC(=O)[C@H](CC(=O)O)NC(=O)[C@H](CC(C)C)NC1=O` (single isomer, unassigned) [FP0727c, Ac-P-Q-MA-I-L-D-R7-H-V-R-R-V-W-R-NH2] is 0.5 to 5 µM; for `CC[C@H](C)[C@@H]1NC(=O)C2(NC(=O)[C@H](CCC(N)=O)NC(=O)[C@@H]3CCCN3C(C)=O)CN(C2)C(=O)OCC=CCCCCC[C@@](C)(C(=O)N[C@@H](Cc2c[nH]cn2)C(=O)N[C@H](C(=O)N[C@@H](CCCNC(=N)N)C(=O)N[C@@H](CCCNC(=N)N)C(=O)N[C@H](C(=O)N[C@@H](Cc2c[nH]c3ccccc23)C(=O)N[C@@H](CCCNC(=N)N)C(N)=O)C(C)C)C(C)C)NC(=O)[C@H](CC(=O)O)NC(=O)[C@H](CC(C)C)NC1=O` (single isomer, unassigned) [FP0728c, Ac-P-Q-MA-I-L-D-S7-H-V-R-R-V-W-R-NH2] it is 0.5 to 5 µM.

These data come from patent US11198713B2, “Agents modulating beta-catenin functions and methods thereof” (FOG PHARMACEUTICALS, INC., priority 2017, dated 2021).
